Data from patent US20260345619A1 (Principia Biopharma Inc., priority 2023, published 2026).

Test: Asthma Quality of Life Questionnaire with Standardized Activities (AQLQ(S))
Format: in vivo, human
Settings: for AQLQ global score responders at Week 12, number / AQLQ global score responders at Week 12, percentage: improvement ≥0.5 from baseline
Description: The AQLQ(S) is a self-administered patient reported outcome to measure the functional impairments that are most troublesome to adolescents and adults ≥12 years of age as a result of their asthma.
Asthma Quality of Life Questionnaire with Standardized Activities (AQLQ(S)) self-administered (≥12 years)
The AQLQ(S) was designed as a self-administered patient reported outcome to measure the functional impairments that are most troublesome to adolescents and adults ≥12 years of age as a result of their asthma. The instrument is comprised of 32 items, each rated on a 7-point Likert scales from 1 to 7. The AQLQ(S) has 4 domains. The domains and the number of items in each domain are as follows: • Symptoms (12 items) • Activity limitation (11 items) • Emotional function (5 items) • Environmental stimuli (4 items)
A global score is calculated ranging from 1 to 7 and a score by domain. Higher scores indicate better quality of life. […] Patients were to complete the questionnaire in an electronic diary during on-site visits.
Secondary endpoints included pre-bronchodilator FEV1 change from baseline at EOT, ACQ-5 score change from baseline, and AQLQ score change from baseline. Other secondary and exploratory endpoints are described in Table 2.

[1] = 400 mg BID, observed/LOCF imputed, n=29, mITT
[2] = 400 mg TID, observed/LOCF imputed, n=53, mITT

CC(C)(C=C(C#N)C(=O)N1CCC[C@@H](n2nc(-c3ccc(Oc4ccccc4)cc3F)c3c(N)ncnc32)C1)N1CCN(C2COC2)CC1 (mixture of isomers) [rilzabrutinib, (R)-2-[3-[4-amino-3-(2-fluoro-4-phenoxy-phenyl)pyrazolo[3,4-d]pyrimidin-1-yl]piperidine-1-carbonyl]-4-methyl-4-[4-(oxetan-3-yl)piperazin-1-yl]pent-2-enenitrile]
AQLQ global score responder analysis at Week 12, OR vs. placebo (95% CI) (400 mg BID, 95% CI 1.19, 20.17, mITT): 4.89 | AQLQ global score responders (including multiply imputed) at Week 12, number (400 mg BID, N=32, mITT): 16.6 | AQLQ global score responders (including multiply imputed) at Week 12, percentage (400 mg BID, N=32, mITT): (51.7) | AQLQ global score responders at Week 12, number [1]: 15 | AQLQ global score responders at Week 12, percentage [1]: (51.7) (14/1) % | AQLQ global score change from baseline at Week 12, LS Mean Diff vs. placebo (400 mg BID, mITT, 1 asthma exacerbation within 2 years): 0.75 | AQLQ global score change from baseline at Week 12, LS Mean Diff vs. placebo (400 mg BID, mITT, 2 asthma exacerbations within 2 years): 0.61 | AQLQ global score change from baseline at Week 12, LS Mean Diff vs. placebo (400 mg BID, mITT, >2 asthma exacerbations within 2 years): 1.18 | AQLQ global score change from baseline at Week 12, LS Mean Diff vs. placebo (400 mg BID, mITT, Eastern Europe): 0.08 | AQLQ global score change from baseline at Week 12, LS Mean Diff vs. placebo (400 mg BID, mITT, Latin America): 0.87 | AQLQ global score change from baseline at Week 12, LS Mean Diff vs. placebo (400 mg BID, mITT, age <45 years): 0.20 | AQLQ global score change from baseline at Week 12, LS Mean Diff vs. placebo (400 mg BID, mITT, age at asthma onset <12 years): 0.34 | AQLQ global score change from baseline at Week 12, LS Mean Diff vs. placebo (400 mg BID, mITT, age at asthma onset <18 years): 0.43 | AQLQ global score change from baseline at Week 12, LS Mean Diff vs. placebo (400 mg BID, mITT, age at asthma onset ≥12-<18 years): 2.49 | AQLQ global score change from baseline at Week 12, LS Mean Diff vs. placebo (400 mg BID, mITT, age at asthma onset ≥18-<40 years): 0.57 | AQLQ global score change from baseline at Week 12, LS Mean Diff vs. placebo (400 mg BID, mITT, age at asthma onset ≥18 years): 0.75 | AQLQ global score change from baseline at Week 12, LS Mean Diff vs. placebo (400 mg BID, mITT, age at asthma onset ≥40 years): 0.93 | AQLQ global score change from baseline at Week 12, LS Mean Diff vs. placebo (400 mg BID, mITT, age ≥45 years): 1.04 | AQLQ global score change from baseline at Week 12, LS Mean Diff vs. placebo (400 mg BID, mITT, all others than low EOS and low FeNO): 0.61 | AQLQ global score change from baseline at Week 12, LS Mean Diff vs. placebo (400 mg BID, mITT, atopic medical conditions: no): 1.08 | AQLQ global score change from baseline at Week 12, LS Mean Diff vs. placebo (400 mg BID, mITT, atopic medical conditions: yes): 0.52 | AQLQ global score change from baseline at Week 12, LS Mean Diff vs. placebo (400 mg BID, mITT, baseline ACQ-5 score >2): 0.95 | AQLQ global score change from baseline at Week 12, LS Mean Diff vs. placebo (400 mg BID, mITT, baseline ACQ-5 score ≤2): 0.43 | AQLQ global score change from baseline at Week 12, LS Mean Diff vs. placebo (400 mg BID, mITT, baseline BMI <25 kg/m^2): 1.00 | AQLQ global score change from baseline at Week 12, LS Mean Diff vs. placebo (400 mg BID, mITT, baseline BMI ≥25-<30 kg/m^2): 0.67 | AQLQ global score change from baseline at Week 12, LS Mean Diff vs. placebo (400 mg BID, mITT, baseline BMI ≥30 kg/m^2): 0.73 | AQLQ global score change from baseline at Week 12, LS Mean Diff vs. placebo (400 mg BID, mITT, baseline FEV1 reversibility <12%): 0.73 | AQLQ global score change from baseline at Week 12, LS Mean Diff vs. placebo (400 mg BID, mITT, baseline FEV1 reversibility ≥12%): 0.29 | AQLQ global score change from baseline at Week 12, LS Mean Diff vs. placebo (400 mg BID, mITT, baseline FeNO <25 ppb): 0.98 | AQLQ global score change from baseline at Week 12, LS Mean Diff vs. placebo (400 mg BID, mITT, baseline FeNO <35 ppb): 0.84 | AQLQ global score change from baseline at Week 12, LS Mean Diff vs. placebo (400 mg BID, mITT, baseline FeNO ≥25 ppb): 0.51 | AQLQ global score change from baseline at Week 12, LS Mean Diff vs. placebo (400 mg BID, mITT, baseline FeNO ≥35 ppb): 0.77 | AQLQ global score change from baseline at Week 12, LS Mean Diff vs. placebo (400 mg BID, mITT, baseline IgE <100 IU/mL): 0.90 | AQLQ global score change from baseline at Week 12, LS Mean Diff vs. placebo (400 mg BID, mITT, baseline IgE <median 210.8 IU/mL): 1.03 | AQLQ global score change from baseline at Week 12, LS Mean Diff vs. placebo (400 mg BID, mITT, baseline IgE ≥100 IU/mL): 0.59 | AQLQ global score change from baseline at Week 12, LS Mean Diff vs. placebo (400 mg BID, mITT, baseline IgE ≥median 210.8 IU/mL): 0.67 | AQLQ global score change from baseline at Week 12, LS Mean Diff vs. placebo (400 mg BID, mITT, baseline blood eosinophil level 1 <0.15 10^9/L): 0.62 | AQLQ global score change from baseline at Week 12, LS Mean Diff vs. placebo (400 mg BID, mITT, baseline blood eosinophil level 1 ≥0.15 10^9/L): 0.69 | AQLQ global score change from baseline at Week 12, LS Mean Diff vs. placebo (400 mg BID, mITT, baseline blood eosinophil level 2 <0.3 10^9/L): 0.79 | AQLQ global score change from baseline at Week 12, LS Mean Diff vs. placebo (400 mg BID, mITT, baseline blood eosinophil level 2 ≥0.3 10^9/L): 0.67 | AQLQ global score change from baseline at Week 12, LS Mean Diff vs. placebo (400 mg BID, mITT, baseline percent predicted FEV1 <68%): 0.92 | AQLQ global score change from baseline at Week 12, LS Mean Diff vs. placebo (400 mg BID, mITT, baseline percent predicted FEV1 ≥68%): 0.47 | AQLQ global score change from baseline at Week 12, LS Mean Diff vs. placebo (400 mg BID, mITT, baseline pre-bronchodilator FEV1 <2.022 L): 0.89 | AQLQ global score change from baseline at Week 12, LS Mean Diff vs. placebo (400 mg BID, mITT, baseline pre-bronchodilator FEV1 ≥2.022 L): 0.54 | AQLQ global score change from baseline at Week 12, LS Mean Diff vs. placebo (400 mg BID, mITT, baseline weight <60 kg): 1.63 | AQLQ global score change from baseline at Week 12, LS Mean Diff vs. placebo (400 mg BID, mITT, baseline weight ≥60-<90 kg): 0.70 | AQLQ global score change from baseline at Week 12, LS Mean Diff vs. placebo (400 mg BID, mITT, baseline weight ≥90 kg): −0.26 | AQLQ global score change from baseline at Week 12, LS Mean Diff vs. placebo (400 mg BID, mITT, female): 0.73 | AQLQ global score change from baseline at Week 12, LS Mean Diff vs. placebo (400 mg BID, mITT, former smokers): 1.89 | AQLQ global score change from baseline at Week 12, LS Mean Diff vs. placebo (400 mg BID, mITT, low EOS (<0.15) and low FeNO (<25)): 2.45 | AQLQ global score change from baseline at Week 12, LS Mean Diff vs. placebo (400 mg BID, mITT, male): 0.41 | AQLQ global score change from baseline at Week 12, LS Mean Diff vs. placebo (400 mg BID, mITT, never smokers): 0.65 | AQLQ global score non-responders at Week 12, number [1]: 14 | AQLQ global score non-responders at Week 12, percentage [1]: (48.3) (10/4) | participants with AQLQ improvement of at least 0.5 from baseline at Week 12 (400 mg BID, placebo 34.5%, p=0.0281): 51.7% | AQLQ global score responder analysis at Week 12, OR vs. placebo (95% CI) (400 mg TID, 95% CI 1.02, 4.89, mITT): 2.23 | AQLQ global score responders (including multiply imputed) at Week 12, number (400 mg TID, N=64, mITT): 32.9 | AQLQ global score responders (including multiply imputed) at Week 12, percentage (400 mg TID, N=64, mITT): (51.4) | AQLQ global score responders at Week 12, number [2]: 29 | AQLQ global score responders at Week 12, percentage [2]: (54.7) (28/1) % | AQLQ global score change from baseline at Week 12, LS Mean Diff vs. placebo (400 mg TID, mITT, 1 asthma exacerbation within 2 years): 0.29 | AQLQ global score change from baseline at Week 12, LS Mean Diff vs. placebo (400 mg TID, mITT, 2 asthma exacerbations within 2 years): 0.27 | AQLQ global score change from baseline at Week 12, LS Mean Diff vs. placebo (400 mg TID, mITT, Eastern Europe): 0.43 | AQLQ global score change from baseline at Week 12, LS Mean Diff vs. placebo (400 mg TID, mITT, Latin America): −0.22 | AQLQ global score change from baseline at Week 12, LS Mean Diff vs. placebo (400 mg TID, mITT, age <45 years): 0.43 | AQLQ global score change from baseline at Week 12, LS Mean Diff vs. placebo (400 mg TID, mITT, age at asthma onset <12 years): 0.46 | AQLQ global score change from baseline at Week 12, LS Mean Diff vs. placebo (400 mg TID, mITT, age at asthma onset <18 years): 0.31 | AQLQ global score change from baseline at Week 12, LS Mean Diff vs. placebo (400 mg TID, mITT, age at asthma onset ≥12-<18 years): −0.37 | AQLQ global score change from baseline at Week 12, LS Mean Diff vs. placebo (400 mg TID, mITT, age at asthma onset ≥18-<40 years): 0.25 | AQLQ global score change from baseline at Week 12, LS Mean Diff vs. placebo (400 mg TID, mITT, age at asthma onset ≥18 years): 0.24 | AQLQ global score change from baseline at Week 12, LS Mean Diff vs. placebo (400 mg TID, mITT, age at asthma onset ≥40 years): 0.29 | AQLQ global score change from baseline at Week 12, LS Mean Diff vs. placebo (400 mg TID, mITT, age ≥45 years): 0.15
